Patent US20220280594A1, “APPLICATION OF POLYPEPTIDE OR DERIVATIVE THEREOF” (CHENGDU HUITAI BIOMEDICINE CO., LTD., priority 2019, published 2022)
Ends that are not written are not given here. PEG = not defined here

Tested on: human lung cancer cells (A549) subcutaneous xenograft
Test: lung cancer subcutaneous xenograft animal model, intratumoral injection
Type: in vivo, mice (BALB/c-nu/nu)
Conditions: intratumoral 5 mg/kg once every other day, 20 days; for Weight of tumor (g) (mean ± SD): control 1.92 ± 0.13; for Volume of tumor (mm^3) (mean ± SD): control 1700.16 ± 305.72
Protocol: Experimental animals: 4-6 weeks old female immunodeficiency mice (BALB/c-nu/nu, Beijing Vital River Laboratory Animal Technology Co., Ltd.).
Subcutaneous xenograft animal model. The number of cells inoculated subcutaneously vin mice was about 2×10^6/200 μL. When the volume of the subcutaneous tumor was greater than 100 mm^3, the mice were randomly divided into groups and subjected to treatment. When the mass volume of the tumors in model control group reached 2000 mm^3 or the animal dies, the treatment ended. The animals were dissected, the tumors were taken out, and the weight and volume of the tumors were measured. During the period of the entire experiment, the mice were observed and the body weight was measured every other day.
The method used for the drug efficacy test in the animal model of the subcutaneous xenograft derived from lung cancer cells was as described in Example 5. The tumor cells were human lung cancer cells (A549), and the route of administration was intratumoral injection. There were two groups: the model control group and the polypeptide or its derivative treatment group (N1-N12). The drug dosage of the treatment group was 5 mg/kg, once every other day and the treatment time was 10 days.
The procedure of the efficacy test in this example, route and dosage of administration were the same as in Example 9. The peptides used in the experiment were N13-N32. The treatment time was 20 days.

| Substance | Weight of tumor (g) (mean ± SD) | Volume of tumor (mm^3) (mean ± SD) |
| --- | --- | --- |
| N13: SEQ ID NO: 1 with deletion of positions 15-18 and positions 1-5 (LAKENVTQD) | 1.09 ± 0.09 | 986.7 ± 261.02 |
| N17: SEQ ID NO: 1 with addition of two amino acids to the carboxyl terminal (YRVRFLAKENVTQDAEDNCT) | 0.76 ± 0.26 | 893.18 ± 234.75 |
| N31: SEQ ID NO: 1 with deletion of positions 3, 4, 11 and 15-18 and PEG modification at the carboxyl terminal (YRFLAKENTQD-{PEG}; reading uncertain) | 0.71 ± 0.16 | 900.88 ± 255.61 |
| N20: SEQ ID NO: 1 with addition of one amino acid at the amino terminal and deletion of position 18 (RYRVRFLAKENVTQDAED) | 0.89 ± 0.22 | 1037.56 ± 256.6 |
| N19: SEQ ID NO: 1 with deletion of positions 1-5 and 15-18 and addition of two amino acids at the carboxyl terminal (LAKENVTQDRC) | 0.81 ± 0.29 | 963.18 ± 185.31 |
| N15: SEQ ID NO: 1 with substitution N18R and addition of one amino acid to the carboxyl terminal (YRVRFLAKENVTQDAEDRC) | 0.63 ± 0.13 | 793.32 ± 173.3 |
| N16: SEQ ID NO: 1 with substitution A7R and addition of one amino acid at the carboxyl terminus (YRVRFLRKENVTQDAEDNC) | 0.83 ± 0.27 | 897.27 ± 176.16 |
| N30: SEQ ID NO: 1 with deletion of positions 1-5 and 15-18 and PEG modification at the carboxyl terminal (LAKENVTQD-{PEG}; reading uncertain) | 0.9 ± 0.22 | 913.9 ± 204.07 |
| N27: SEQ ID NO: 1 with addition of one amino acid at the carboxyl terminal and PEG modification at the carboxyl terminal (YRVRFLAKENVTQDAEDNC-{PEG}; reading uncertain) | 0.95 ± 0.22 | 1059.51 ± 161.22 |
| N24: SEQ ID NO: 1 with substitution A7R, deletion of positions 1-2 and of position 18 (VRFLRKENVTQDAED) | 0.83 ± 0.29 | 908.37 ± 256.24 |
| N22: SEQ ID NO: 1 with substitution A7R, deletion of three amino acids at the amino terminal and of positions 15-18 (RFLRKENVTQD) | 0.83 ± 0.33 | 835.73 ± 184.67 |
| N29: SEQ ID NO: 1 with deletion of positions 1-5 and 15-18 and PEG modification at the amino terminal ({PEG}-LAKENVTQD; reading uncertain) | 0.82 ± 0.22 | 949 ± 227.4 |
| N23: SEQ ID NO: 1 with substitution A7R, deletion of position 11 and of positions 15-18 (YRVRFLRKENTQDAED) | 0.83 ± 0.29 | 838.73 ± 218 |
| N32: SEQ ID NO: 1 with deletion of positions 1-3, addition of one amino acid and PEG modification at the carboxyl terminal (RFLAKENVTQDAEDNC-{PEG}; reading uncertain) | 0.88 ± 0.25 | 984.03 ± 184.86 |
